Assays:
[1] = tested on: T1, L-arginine oxidase (ArgO); test: colorimetric H2O2 detection with gCuHCF and o-dianisidine, Lineweaver-Burke; assay type: biochemical, Amanita phalloides; details: enzyme in solution; coupled to gCuHCF peroxidase mimic
T1 construct: native, purified from the mushroom by the authors' method
Text: colorimetric H2O2 detection with gCuHCF and o-dianisidine, Lineweaver-Burke on L-arginine oxidase (ArgO) | kinetic constants of ArgO in the ArgO/gCuHCF/o-DZ method with respect to Arg

[2] = target: T2, flavocytochrome b2 (Fcb2) (Ogataea polymorpha, UniProt A0A9P8PNE1); test: cyclic voltammetry and chronoamperometry, Fcb2 in gCuHCF on graphite electrode; assay type: biochemical
T2 construct: gene OGATHE_001663
T2 sequence (A0A9P8PNE1 55-553): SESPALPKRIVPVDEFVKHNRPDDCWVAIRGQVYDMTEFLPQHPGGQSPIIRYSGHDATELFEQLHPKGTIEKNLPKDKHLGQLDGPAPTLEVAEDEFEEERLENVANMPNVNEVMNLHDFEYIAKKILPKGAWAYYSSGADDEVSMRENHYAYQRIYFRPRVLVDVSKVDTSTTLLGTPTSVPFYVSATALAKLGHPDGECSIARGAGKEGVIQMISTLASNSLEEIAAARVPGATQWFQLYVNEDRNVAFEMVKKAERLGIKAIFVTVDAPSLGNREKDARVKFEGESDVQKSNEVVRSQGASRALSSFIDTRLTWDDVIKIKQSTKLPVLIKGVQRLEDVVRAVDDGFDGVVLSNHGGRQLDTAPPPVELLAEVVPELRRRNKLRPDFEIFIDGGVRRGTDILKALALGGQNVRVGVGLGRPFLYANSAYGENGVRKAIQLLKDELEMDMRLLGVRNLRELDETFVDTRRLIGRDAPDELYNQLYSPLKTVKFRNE

Compound `N=C(N)NCCC[C@H](N)C(=O)O` [L-arginine] has a Km [1] of 300 µM.
With `C[C@H](O)C(=O)O` [L-lactate] the “cyclic voltammetry and chronoamperometry, Fcb2 in gCuHCF on graphite electrode” value [2] was “current output on lactate addition correlates with Fcb2 activity in the sensing layer”.

From publication PMC11940147, “Copper Hexacyanoferrates Obtained via Flavocytochrome b2 Assistance: Characterization and Application” (Biosensors, 2025)
